target: human PAD4 (hPAD4) (Homo sapiens, UniProt Q9UM07); experiment: RFMS human PAD4 functional assay (rapid-fire mass spectrum); format: biochemical; conditions: 5 nM hPAD4 enzyme, 250 μM BAEE, 50 μM Calcium; 30 min preincubation, 90 min reaction at 37° C.
Summary of the method: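 PAD4 (10 nM) preincubated 30 min with compound (top final 50 μM), then BAEE substrate added in pH 7.5 HEPES buffer with DTT, 50 μM calcium, TPEN; 90 min at 37° C. After TCA quench, citrulline derivatized with phenyl glyoxal (4 mM final, 30 min, 37° C) and quantified by RapidFire MS against internal standard.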

human PAD4 (hPAD4), sequence (Q9UM07 whole entry): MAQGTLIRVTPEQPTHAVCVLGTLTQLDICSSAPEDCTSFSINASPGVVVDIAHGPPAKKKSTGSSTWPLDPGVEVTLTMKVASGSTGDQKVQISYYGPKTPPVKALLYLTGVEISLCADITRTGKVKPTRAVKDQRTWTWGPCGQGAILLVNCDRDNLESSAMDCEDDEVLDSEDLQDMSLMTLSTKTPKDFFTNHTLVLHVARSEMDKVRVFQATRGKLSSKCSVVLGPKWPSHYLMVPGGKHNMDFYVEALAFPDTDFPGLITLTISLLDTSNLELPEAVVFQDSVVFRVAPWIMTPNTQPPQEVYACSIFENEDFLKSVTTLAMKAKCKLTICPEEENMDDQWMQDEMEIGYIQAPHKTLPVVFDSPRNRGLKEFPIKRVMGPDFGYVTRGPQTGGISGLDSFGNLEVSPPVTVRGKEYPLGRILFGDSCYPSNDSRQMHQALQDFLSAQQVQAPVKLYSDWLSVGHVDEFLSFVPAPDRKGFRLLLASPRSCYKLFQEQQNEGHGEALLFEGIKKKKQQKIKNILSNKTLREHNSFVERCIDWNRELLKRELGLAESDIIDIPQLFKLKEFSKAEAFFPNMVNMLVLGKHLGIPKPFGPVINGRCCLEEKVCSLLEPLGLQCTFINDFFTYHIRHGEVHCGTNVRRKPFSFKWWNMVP

| IC50 [nM] | SMILES |
| --- | --- |
| 111 | COc1cc(C(=O)N2C[C@H]3CC[C@@H]2[C@@H]3N)cc2nc(-c3cc4cccnc4n3CC3CC3)n(C3CN(C(=O)c4ccc(Cl)nc4)C3)c12 [Example 99, (1R,4R,7R)-2-{1-[1-(6-chloropyridine-3-carbonyl)azetidin-3-yl]-2-[1-(cyclopropylmethyl)-1H-pyrrolo[2,3-b]pyridin-2-yl]-7-methoxy-1H-1,3-benzodiazole-5-carbonyl}-2-azabicyclo[2.2.1]heptan-7-amine] |
| 18 | COc1cc(C(=O)N2C[C@H]3CC[C@@H]2[C@@H]3N)cc2nc(-c3cc4ccc(Cl)cc4n3CC3CC3)n(CC3CN(c4ccnc(C(N)=O)n4)C3)c12 [Example 8, 4-[3-({5-[(1R,4R,7R)-7-amino-2-azabicyclo[2.2.1]heptane-2-carbonyl]-2-[6-chloro-1-(cyclopropylmethyl)-1H-indol-2-yl]-7-methoxy-1H-1,3-benzodiazol-1-yl}methyl)azetidin-1-yl]pyrimidine-2-carboxamide] |
| 35 | COc1cc(C(=O)N2CC3CCC2[C@@H]3N)cc2nc(-c3cc4ccccc4n3CC3CC3)n(CC3CN(C(=O)c4cnc(Cl)s4)C3)c12 (stereo partly drawn) [Example 414, (7R)-2-(1-{[1-(2-chloro-1,3-thiazole-5-carbonyl)azetidin-3-yl]methyl}-2-[1-(cyclopropylmethyl)-1H-indol-2-yl]-7-methoxy-1H-1,3-benzodiazole-5-carbonyl)-2-azabicyclo[2.2.1]heptan-7-amine] |
| 72 | COc1cc(C(=O)N2C[C@H](N)C[C@@H](F)C2)cc2nc(-c3cc4cccnc4n3CC3CC3)n(Cc3cnn(-c4cccc(O)n4)c3)c12 [Example 407, 6-[4-({5-[(3R,5R)-3-amino-5-fluoropipendine-1-carbonyl]-2-[1-(cyelopropylmethyl)-1H-pyrrolo[2,3-b]pyridin-2-yl]-7-methoxy-1H-1,3-benzodiazol-1-yl}methyl)-1H-pyrazol-1-yl]pyridin-2-ol] |
| 212 | COc1cc(C(=O)N2CC3CCC2[C@@H]3N)cc2nc(-c3cc4ccccc4n3CC3CC3)n(CC3CC3c3ccccc3)c12 (stereo partly drawn) [Example 479, (7R)-2-{2-[1-(cyclopropylmethyl)-1H-indol-2-yl]-7-methoxy-1-[(2-phenylcyclopropyl)methyl]-1H-1,3-benzodiazole-5-carbonyl}-2-azabicyclo[2.2.1]heptan-7-amine] |
| 2980 | COc1cc(C(=O)N2CCC[C@@H](N)C2)cc2nc(-c3cc4cccnc4n3CC3CC3)n(C3CN(S(C)(=O)=O)C3)c12 [Example 341, (3R)-1-{2-[1-(cyclopropylmethyl)-1H-pyrrolo[2,3-b]pyridin-2-yl]-1-(1-methanesulfonylazetidin-3-yl)-7-methoxy-IH-1,3-benzodiazole-5-carbonyl}piperidin-3-amine] |
| 83 | N[C@@H]1C2CCC1N(C(=O)c1ccc3c(c1)nc(-c1cc4cccnc4n1CC1CC1)n3CC1CN(C(=O)c3ccccc3)C1)C2 (stereo partly drawn) [Example 465, (7R)-2-{1-[(1-benozylazetidin-3-yl)methyl]-2-[1-(cyclopropylmethyl)-1H-pyrrolo[2,3-b]pyridin-2-yl]-1H-1,3-benzodiazole-5-carbonyl}-2-azabicyclo[2.2.1]heptan-7-amine] |
| 16 | COc1cc(C(=O)N2CC3CCC2[C@@H]3N)cc2nc(-c3cc4ccccc4n3CC3CC3)n(CC3CN(C(=O)c4ccnc(F)c4)C3)c12 (stereo partly drawn) [Example 419, (7R)-2-{2-[1-(cyclopropylmethyl)-1H-indol-2-yl]-1-{[1-(2-fluoropyridine-4-carbonyl)azetidin-3-yl]methyl}-7-methoxy-1H-1,3-benzodiazole-5-carbonyl}-2-azaticyclo[2.2.1]heptan-7-amine] |
| 606 | COc1cc(C(=O)N2C[C@H](N)C[C@@H](F)C2)cc2nc(-c3cc4cccnc4n3CC3CC3)n(Cc3ccnn3C)c12 [Example 518, (3R,5R)-1-{2-[1-(cyclopropylmethyl)-1H-pyrrolo[2,3-b]pyridin-2-yl]-7-methoxy-1-[(1-methyl-1H-pyrazol-5-yl)methyl]-1H-1,3-benzodiazole-5-carbonyl}-5-fluoropiperidin-3-amine] |
| 21 | COc1cc(C(=O)N2C[C@H](N)C[C@@H](F)C2)cc2nc(-c3cc4ccccc4n3CC3CC3)n(CC3CN(C(=O)c4cc(C#N)ccc4F)C3)c12 [Example 152, 3-[3-({5-[(3R,5R)-3-amino-5-fluoropiperidine-1-carbonyl]-2-[1-(cyclopropylmethyl)-1H-indol-2-yl]-7-methoxy-1H-1,3-benzodiazol-1-yl}methyl)azetidine-1-carbonyl]-4-fluorobenzonitrile] |
| 41 | COc1cc(C(=O)N2C[C@H](N)C[C@@H](F)C2)cc2nc(-c3cc4ccccc4n3CC3CC3)n(Cc3cnn(C)c3)c12 [Example 257, (3R,5R)-1-{2-[1-(cyclopropylmethyl)-1H-indol-2-yl]-7-methoxy-1-[(1-methyl-1H-pyrazol-4-yl)methyl]-1H-1,3-benzodiazole-5-carbonyl}-5-fluoropiperidin-3-amine] |
| 22 | COc1cc(C(=O)N2CC3CCC2[C@@H]3N)cc2nc(-c3cc4cccnc4n3CC3CC3)n(CC3CN(C(=O)c4cc(F)ccc4F)C3)c12 (stereo partly drawn) [Example 422, (7R)-2-{2-[1-(cyclopropylmethyl)-1H-pyrrolo[2,3-b]pyridin-2-yl]-1-{[1-(2,5-difluorobenzoyl)azetidin-3-yl]methyl}-7-methoxy-1H-1,3-benzodiazole-5-carbonyl}-2-azabicyclo[2.2.1]heptan-7-amine] |
| 24 | COc1cc(C(=O)N2C[C@H]3CC[C@@H]2[C@@H]3N)cc2nc(-c3cc4ccccc4n3CC3CC3)n(CC3CN(C(=O)c4ccccc4C#N)C3)c12 [Example 159, 2-[3-({5-[(1R,4R,7R)-7-amino-2-azabicyclo[2.2.1]heptane-2-carbonyl]-2-[1-(cyclopropylmethyl)-1H-indol-2-yl]-7-methoxy-1H-1,3-benzodiazol-1-yl}methyl)azetidine-1-carbonyl]benzonitrile] |
| 26 | COc1cc(C(=O)N2CC3CCC2[C@@H]3N)cc2nc(-c3cc4ccccc4n3CC3CC3)n(C[C@H]3CCN(c4cncc(C#N)c4)C3)c12 (stereo partly drawn) [Example 225, 5-[(3S)-3-({5-[(1R,4R,7R)-7-amino-2-azabicyclo[2.2.1]heptane-2-carbonyl]-2-[1-(cyclopropylmethyl)-1H-indo1-2-yl]-7-methoxy-1H-1,3-benzodiazol-1-yl}methyl)pyrrolidin-1-yl]pyridine-3-carbonitrile] |
| 297 | COc1cc(C(=O)N2C[C@H]3CC[C@@H]2[C@@H]3N)cc2nc(-c3cc4cccnc4n3CC3CC3)n(C3CNC3)c12 [Example 307, (1R,4R,7R)-2-[1-(azetidin-3-yl)-2-[1-(cyclopropylmethyl)-1H-pyrrolo[2,3-b]pyridin-2-yl]-7-methoxy-1H-1,3-benzodiazole-5-carbonyl]-2-azabicyclo[2.2.1]heptan-7-amine] |
| 30 | COc1cc(C(=O)N2CC3CCC2[C@@H]3N)cc2nc(-c3cc4cccnc4n3CC3CC3)n(Cc3cnn(-c4ccc(F)cn4)c3)c12 (stereo partly drawn) [Example 371, (7R)-2-{2-[1-(cyclopropylmethyl)-1H-pyrrolo[2,3-b]pyridin-2-yl]-1-{[1-(5-fluoropyridin-2-yl)-1H-pyrazol-4-yl]methyl}-7-methoxy-1H-1,3-benzodiazole-5-carbonyl}-2-azabicyclo[2.2.1]heptan-7-amine] |
| 156 | COc1cc(C(=O)N2C[C@H]3CC[C@@H]2[C@@H]3N)cc2nc(-c3cc4cccnc4n3CC3CC3)n(CC3CN(c4cncnc4C#N)C3)c12 [Example 52, 5-[3-({5-[(1R,4R,7R)-7-amino-2-azabicyclo[2.2.1]heptane-2-carbonyl]-2-[1-(cyclopropylmethyl)-1H-pyrrolo[2,3-b]pyridin-2-yl]-7-methoxy-1H-1,3-benzodiazol-1-yl}methyl)azetidin-1-yl]pyrimidine-4-carbonitrile] |
| 298 | COc1cc(C(=O)N2C[C@H]3CC[C@@H]2[C@@H]3N)cc2nc(-c3cc4ccccc4n3CC3CC3)n(CC3CCC(=O)N3)c12 (stereo partly drawn) [Example 275, 5-({5-[(1R,4R,7R)-7-amino-2-azabicyclo[2.2.1]heptane-2-carbonyl]-2-[1-(cyclopropylmethyl)-1H-indol-2-yl]-7-methoxy-1H-1,3-benzodiazol-1-yl}methyl)pyrrolidin-2-one] |
| 300 | COc1cc(C(=O)N2CC3CCC2[C@@H]3N)cc2nc(-c3cc4cccnc4n3CC3CC3)n(Cc3nc[nH]n3)c12 (stereo partly drawn) [Example 509, (7R)-2-{2-[1-(cyclopropylmethyl)-1H-pyrrolo[2,3-b]pyridin-2-yl]-7-methoxy-1-[(1H-l,2,4-triazol-3-yl)methyl]-1H-1,3-benzodiazole-5-carbonyl}-2-azabicyclo[2.2.1]heptan-7-amine] |
| 92 | COc1cc(C(=O)N2CC3CCC2[C@@H]3N)cc2nc(-c3cc4ccccc4n3CC3CC3)n(Cc3ccn(C)n3)c12 (stereo partly drawn) [Example 498, (7R)-2-{2-[1-(cyclopropylmethyl)-1H-indol-2-yl]-7-methoxy-1-[(1-methyl-1H-pyrazol-3-yl)methyl]-1H-1,3-benzodiazole-5-carbonyl}-2-azabicyclo[2.2.1]heptan-7-amine] |
| 27 | CC#CC(=O)N1CC(Cn2c(-c3cc4cccnc4n3CC3CC3)nc3cc(C(=O)N4C[C@H]5CC[C@@H]4[C@@H]5N)cc(OC)c32)C1 [Example 104, 1-[3-({5-[(1R,4R,7R)-7-amino-2-azabicyclo[2.2.1]heptane-2-carbonyl]-2-[1-(cyclopropylmethyl)-1H-pyrrolo[2,3-b]pyridin-2-yl]-7-methoxy-1H-1,3-benzodiazol-1-yl}methyl)azetidin-1-yl]but-2-yn-1-one] |
| 125 | COc1cc(C(=O)N2C[C@H]3CC[C@@H]2[C@@H]3N)cc2nc(-c3cc4cccnc4n3CC3CC3)n(C3CN(C(=O)c4ccnc(N)n4)C3)c12 [Example 101, (1R,4R,7R)-2-{1-[1-(2-aminopyrimidine-4-carbonyl)azetidin-3-yl]-2-[1-(cyclopropylmethyl)-1H-pyrrolo[2,3-b]pyridin-2-yl]-7-methoxy-1H-1,3-benzodiazole-5-carbonyl}-2-azabicyclo[2.2.1]heptan-7-amine] |
